Experimental data published in ChEMBL document CHEMBL4330128, “Discovery of two novel branched peptidomimetics containing endomorphin-2 and RF9 pharmacophores: Synthesis and neuropharmacological evaluation” (Bioorg Med Chem, 2019).
The source made the active and inactive calls. The calls are words filed in the database; no cut-off is given here. Where a SMILES comes first, the peptide text is derived from it. Side-chain parts run from the residue outwards. The star is where a group is joined. Adamantane1carbonyl = O=C(C12CC3CC(CC(C3)C1)C2)*

Experiments:
[1] = system: Mus musculus; assay: Antinociceptive activity in Kunming mouse model of thermal-induced nociception assessed as increase in latency to tail withdrawal at 5 nmol, icv measured up to 60 mins by tail flick test; type: functional, organism-based
[2] = molecular target: Mu-type opioid receptor (Homo sapiens, UniProt P35372); assay: Agonist activity at mu-opioid receptor (unknown origin) expressed in HEK293A cells assessed as inhibition of forskolin-induced cAMP accumulation measured after 30 mins; type: functional, cell-based
[3] = molecular target: Delta-type opioid receptor (Homo sapiens, UniProt P41143); assay: Agonist activity at delta-opioid receptor (unknown origin) expressed in HEK293A cells assessed as inhibition of forskolin-induced cAMP accumulation measured after 30 mins; type: functional, cell-based
[4] = molecular target: T1, Neuropeptide FF receptor 1 (Homo sapiens, UniProt Q9GZQ6); assay: Antagonist activity at NPFF1 receptor (unknown origin) expressed in HEK293A cells assessed as reversal of […] induced inhibition of forskolin-stimulated cAMP accumulation measured after 30 mins; type: functional, cell-based
[5] = molecular target: T2, Neuropeptide FF receptor 2 (Homo sapiens, UniProt Q9Y5X5); assay: Antagonist activity at NPFF2 receptor (unknown origin) expressed in HEK293A cells assessed as reversal of […] induced inhibition of forskolin-stimulated cAMP accumulation measured after 30 mins; type: functional, cell-based
[6] = molecular target: T2, Neuropeptide FF receptor 2; assay: Agonist activity at NPFF2 receptor (unknown origin) expressed in HEK293A cells assessed as inhibition of forskolin-stimulated cAMP accumulation measured after 30 mins; type: functional, cell-based
[7] = molecular target: T2, Neuropeptide FF receptor 2; assay: Agonist activity at NPFF2 receptor (unknown origin) expressed in HEK293A cells assessed as inhibition of forskolin-stimulated cAMP accumulation measured after 30 mins relative to NPFF; type: functional, cell-based
[8] = molecular target: Neuropeptide FF receptor 2 (Mus musculus) (UniProt Q924H0); assay: Antagonist activity at NPFF2 receptor in mouse Neuro2a cells assessed as inhibition of NPFF-induced neurite outgrowth by measuring neurite outgrowth at 10 uM after 18 hrs by phase contrast microscopic analysis (reference value: 24.05 +/- 1.19%); type: cell-based; design: scale not given: the % may be the effect or the level left
[9] = system: N2a; assay: Effect on neurite outgrowth in mouse Neuro2a cells at 10 uM after 18 hrs by phase contrast microscopic analysis relative to control; type: cell-based
[10] = system: Mus musculus; assay: Antinociceptive activity in icv dosed Kunming mouse model of thermal-induced nociception assessed as increase in latency to tail withdrawal by tail flick test; type: functional
[11] = system: Mus musculus; assay: Antinociceptive activity in Kunming mouse model of thermal-induced nociception assessed as increase in latency to tail withdrawal at 20 nmol, icv measured up to 60 mins in presence of opioid receptor antagonist naloxone by tail flick test; type: functional, organism-based
[12] = system: Mus musculus; assay: Antinociceptive activity in Kunming mouse model of thermal-induced nociception assessed as increase in latency to tail withdrawal at 10 nmol, icv measured up to 60 mins in presence of NPFF receptor antagonist RF9 by tail flick test; type: functional, organism-based
[13] = system: Mus musculus; assay: Antiallodynic activity in carrageenan-induced Kunming mouse model of mechanical hyperalgesia administered as intrathecal injection after 10 to 90 mins by Von Frey filament assay; type: functional
[14] = system: Mus musculus; assay: Antiallodynic activity in carrageenan-induced Kunming mouse model of mechanical hyperalgesia administered as intrathecal injection after 10 to 90 mins in presence of NPFF receptor antagonist RF9 by Von Frey filament assay; type: functional, organism-based
[15] = system: Mus musculus; assay: Antiallodynic activity in carrageenan-induced Kunming mouse model of mechanical hyperalgesia administered as intrathecal injection after 10 to 90 mins in presence of opioid receptor antagonist naloxone by Von Frey filament assay; type: functional, organism-based
[16] = Toxicity in Kunming mouse assessed as impairment of motor coordination at 20 nmol, icv measured after 10 to 40 mins by rotarod test; conditions: in vivo, icv_or_intrathecal
[17] = Toxicity in Kunming mouse assessed as impairment of motor coordination at 20 nmol, it measured after 10 to 40 mins by rotarod test; conditions: in vivo, icv_or_intrathecal
[18] = system: Mus musculus; assay: Antinociceptive activity in Kunming mouse model of thermal-induced nociception assessed as increase in latency to tail withdrawal at 10 to 20 nmol, icv administered once daily for 5 to 8 days measured daily at 30 mins post dose by tail flick test; type: functional, organism-based
[19] = system: Mus musculus; assay: Antinociceptive activity in Kunming mouse model of thermal-induced nociception assessed as increase in latency to tail withdrawal at 2 to 4 nmol, icv administered once daily for 8 days measured daily at 30 mins post dose in presence of NPFF receptor antagonist RF9 by tail flick test; type: functional, organism-based
[20] = Toxicity in Kunming mouse assessed as inhibition of gastrointestinal transit by measuring reduction in distance traveled by charcoal at 10 mg/kg, ip dosed 15 mins prior charcoal meal measured after 30 mins; type: organism-based; conditions: in vivo, 0.5 h
[21] = Toxicity in Kunming mouse assessed as inhibition of gastrointestinal transit by measuring reduction in distance traveled by charcoal at 5 to 20 nmol, icv dosed 15 mins prior charcoal meal measured after 30 mins; type: organism-based; conditions: in vivo, icv_or_intrathecal, 0.5 h
[22] = molecular target: T1, Neuropeptide FF receptor 1; assay: Agonist activity at NPFF1 receptor (unknown origin) expressed in HEK293A cells assessed as inhibition of forskolin-stimulated cAMP accumulation measured after 30 mins; type: functional, cell-based
[23] = molecular target: Kappa-type opioid receptor (Homo sapiens) (UniProt P41145)
Description: Agonist activity at kappa-opioid receptor (unknown origin) expressed in HEK293A cells assessed as inhibition of forskolin-induced cAMP accumulation measured after 30 mins

[24] = system: Mus musculus; assay: Antinociceptive activity in Kunming mouse model of thermal-induced nociception assessed as increase in latency to tail withdrawal at 20 nmol, icv measured up to 60 mins in presence of mu-opioid receptor antagonist beta-FNA by tail flick test; type: functional, organism-based
[25] = system: Mus musculus; assay: Antinociceptive activity in Kunming mouse model of thermal-induced nociception assessed as increase in latency to tail withdrawal at 20 nmol, icv measured up to 60 mins in presence of kappa-opioid receptor antagonist nor-BNI by tail flick test; type: functional, organism-based
[26] = system: Mus musculus; assay: Antinociceptive activity in Kunming mouse model of thermal-induced nociception assessed as increase in latency to tail withdrawal at 20 nmol, icv measured up to 60 mins in presence of delta-opioid receptor antagonist naltrindole by tail flick test; type: functional, organism-based
[27] = Toxicity in Kunming mouse assessed as inhibition of gastrointestinal transit by measuring reduction in distance traveled by charcoal at 10 to 30 mg/kg, ip dosed 15 mins prior charcoal meal measured after 30 mins; type: organism-based; conditions: in vivo, 0.5 h
[28] = system: Mus musculus; assay: Antinociceptive activity in icv dosed Kunming mouse model of thermal-induced nociception assessed as increase in latency to tail withdrawal up to 60 mins radiant heat tail flick method; type: functional
[29] = system: Mus musculus; assay: Antinociceptive activity in Kunming mouse model of thermal-induced nociception assessed as increase in latency to tail withdrawal at 10 nmol, icv measured up to 60 mins by tail flick test; type: functional, organism-based
[30] = system: Mus musculus; assay: Antinociceptive activity in Kunming mouse model of thermal-induced nociception assessed as increase in latency to tail withdrawal at 2 to 4 nmol, icv administered once daily for 5 days measured daily at 30 mins post dose by tail flick test; type: functional, organism-based
[31] = system: Mus musculus; assay: Antinociceptive activity in Kunming mouse model of thermal-induced nociception assessed as increase in latency to tail withdrawal at 2 nmol, icv administered once daily for 8 days measured daily at 30 mins post dose by tail flick test relative to control; type: functional
[32] = system: Mus musculus; assay: Antinociceptive activity in Kunming mouse model of thermal-induced nociception assessed as increase in latency to tail withdrawal at 4 nmol, icv administered once daily for 8 days measured daily at 30 mins post dose by tail flick test relative to control; type: functional
[33] = system: Mus musculus; assay: Antinociceptive activity in Kunming mouse model of thermal-induced nociception assessed as increase in latency to tail withdrawal at 2 to 4 nmol, icv administered once daily for 8 days measured on days 6 to 8 at 30 mins post dose in presence of NPFF receptor antagonist RF9 by tail flick test; type: functional, organism-based

Sequence of Neuropeptide FF receptor 2 (Mus musculus) (Q924H0 whole entry): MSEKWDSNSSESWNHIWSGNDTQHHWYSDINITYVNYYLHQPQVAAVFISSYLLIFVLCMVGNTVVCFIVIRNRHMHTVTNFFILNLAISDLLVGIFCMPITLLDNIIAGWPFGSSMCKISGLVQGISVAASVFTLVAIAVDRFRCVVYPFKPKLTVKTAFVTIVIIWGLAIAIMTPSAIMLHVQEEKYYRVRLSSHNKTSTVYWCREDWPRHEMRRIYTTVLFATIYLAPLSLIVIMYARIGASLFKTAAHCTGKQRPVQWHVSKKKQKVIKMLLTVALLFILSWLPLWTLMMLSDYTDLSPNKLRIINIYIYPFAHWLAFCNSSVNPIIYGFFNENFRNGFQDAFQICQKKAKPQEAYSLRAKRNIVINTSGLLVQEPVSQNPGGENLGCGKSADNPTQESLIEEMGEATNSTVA
Sequence of Mu-type opioid receptor (P35372 whole entry): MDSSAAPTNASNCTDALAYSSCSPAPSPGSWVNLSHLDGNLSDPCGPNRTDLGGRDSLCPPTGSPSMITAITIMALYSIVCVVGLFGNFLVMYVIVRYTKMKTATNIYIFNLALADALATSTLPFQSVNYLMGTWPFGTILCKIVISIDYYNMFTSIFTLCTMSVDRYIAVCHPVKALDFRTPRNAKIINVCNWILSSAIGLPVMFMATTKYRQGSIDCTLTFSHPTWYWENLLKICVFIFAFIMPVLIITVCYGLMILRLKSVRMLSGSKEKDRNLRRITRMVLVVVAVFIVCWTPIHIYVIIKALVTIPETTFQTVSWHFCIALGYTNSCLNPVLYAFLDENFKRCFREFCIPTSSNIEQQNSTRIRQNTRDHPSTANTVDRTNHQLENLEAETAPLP
T2 sequence (Q9Y5X5 whole entry): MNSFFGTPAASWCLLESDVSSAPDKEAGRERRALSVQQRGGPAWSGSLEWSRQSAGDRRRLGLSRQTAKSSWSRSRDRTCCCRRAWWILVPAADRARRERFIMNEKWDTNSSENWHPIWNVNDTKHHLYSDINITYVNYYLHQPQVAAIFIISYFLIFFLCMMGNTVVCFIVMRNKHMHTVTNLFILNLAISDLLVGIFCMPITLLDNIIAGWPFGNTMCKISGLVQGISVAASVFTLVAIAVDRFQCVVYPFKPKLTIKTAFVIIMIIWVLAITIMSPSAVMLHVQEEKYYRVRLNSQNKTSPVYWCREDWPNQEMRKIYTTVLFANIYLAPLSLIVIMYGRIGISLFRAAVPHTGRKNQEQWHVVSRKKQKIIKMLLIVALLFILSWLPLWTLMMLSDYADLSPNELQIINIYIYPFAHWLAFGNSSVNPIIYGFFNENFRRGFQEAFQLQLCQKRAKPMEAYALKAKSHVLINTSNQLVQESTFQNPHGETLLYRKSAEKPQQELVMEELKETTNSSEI
Sequence of Delta-type opioid receptor (P41143 whole entry): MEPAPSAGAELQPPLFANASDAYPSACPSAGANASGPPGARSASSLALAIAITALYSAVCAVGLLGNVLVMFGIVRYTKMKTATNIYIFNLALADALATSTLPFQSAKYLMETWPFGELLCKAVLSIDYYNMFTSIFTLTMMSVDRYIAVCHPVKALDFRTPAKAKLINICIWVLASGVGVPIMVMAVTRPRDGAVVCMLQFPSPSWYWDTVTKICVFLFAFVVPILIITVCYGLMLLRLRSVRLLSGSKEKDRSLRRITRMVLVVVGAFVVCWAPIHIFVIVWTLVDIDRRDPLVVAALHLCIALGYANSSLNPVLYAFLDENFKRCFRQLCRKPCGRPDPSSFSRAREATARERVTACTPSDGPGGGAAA
T1 sequence (Q9GZQ6 whole entry): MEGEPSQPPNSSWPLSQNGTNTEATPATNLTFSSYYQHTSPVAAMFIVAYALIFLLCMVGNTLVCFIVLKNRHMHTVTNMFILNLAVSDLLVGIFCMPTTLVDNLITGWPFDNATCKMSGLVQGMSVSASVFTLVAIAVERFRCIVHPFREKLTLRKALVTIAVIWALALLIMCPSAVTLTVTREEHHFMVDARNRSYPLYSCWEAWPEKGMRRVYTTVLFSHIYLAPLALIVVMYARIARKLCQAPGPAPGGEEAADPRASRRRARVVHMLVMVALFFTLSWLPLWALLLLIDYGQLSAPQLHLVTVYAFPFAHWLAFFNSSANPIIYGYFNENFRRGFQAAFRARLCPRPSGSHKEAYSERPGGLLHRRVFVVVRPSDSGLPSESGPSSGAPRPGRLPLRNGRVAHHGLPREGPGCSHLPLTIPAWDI
Sequence of Kappa-type opioid receptor (Homo sapiens) (P41145 whole entry): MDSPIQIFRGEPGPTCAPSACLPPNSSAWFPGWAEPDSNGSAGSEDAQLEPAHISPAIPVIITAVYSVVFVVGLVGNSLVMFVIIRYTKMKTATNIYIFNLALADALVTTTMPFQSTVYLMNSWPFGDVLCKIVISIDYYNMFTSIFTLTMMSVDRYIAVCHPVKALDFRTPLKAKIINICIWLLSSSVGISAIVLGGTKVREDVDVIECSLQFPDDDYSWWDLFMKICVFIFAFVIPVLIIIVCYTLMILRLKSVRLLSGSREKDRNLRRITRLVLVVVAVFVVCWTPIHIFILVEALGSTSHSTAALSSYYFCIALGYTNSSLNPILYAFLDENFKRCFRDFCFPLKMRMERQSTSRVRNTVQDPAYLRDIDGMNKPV

C=CCN1CC[C@]23c4c5ccc(O)c4O[C@H]2C(=O)CC[C@@]3(O)[C@H]1C5
Activity [1]: inactive

N=C(N)NCCC[C@H](NC(=O)C12CC3CC(CC(C3)C1)C2)C(=O)N[C@@H](Cc1ccccc1)C(=O)NCCCC[C@H](NC(=O)[C@H](Cc1ccccc1)NC(=O)[C@H](Cc1ccccc1)NC(=O)[C@@H]1CCCN1C(=O)[C@@H](N)Cc1ccc(O)cc1)C(N)=O (H-YPFFK([Phe-Arg-Adamantane1carbonyl])-NH2)
EC50 [2]: 1.77 µM | Emax [2]: 54.3% | Emax [3]: 55.9% | EC50 ([3]; read-out: EC50): 2.24 µM | EC50 ([3]; read-out: pEC50 (converted)): 2 µM | IC50 [4]: 0.52 µM | inhibition [4]: Dose-dependent effect | IC50 [5]: 0.52 µM | EC50 [6]: 0.17 µM | Emax [6]: 26.6% | inhibition [6]: Dose-dependent effect | Emax [7]: 50.9% | Activity [8]: 10.3% | Activity [9]: 11.88% | ED50 [10]: 6.27 nmol | Activity [11]: inactive | Activity [12]: Active | Activity [13]: Dose-dependent effect | ED50 [13]: 9.25 nmol | Activity [14]: inactive | Activity [15]: inactive | Activity [16]: Non-Toxic | Activity [17]: Non-Toxic | Activity [18]: Active | Activity [19]: Active | Activity [20]: Non-Toxic | Activity [21]: Non-Toxic | Emax [22]: inactive | pEC50 [22]: inactive | pEC50 [23]: inactive

N=C(N)NCCC[C@H](NC(=O)C12CC3CC(CC(C3)C1)C2)C(=O)N[C@@H](Cc1ccccc1)C(=O)N[C@@H](CCCCNC(=O)[C@H](Cc1ccccc1)NC(=O)[C@H](Cc1ccccc1)NC(=O)[C@@H]1CCCN1C(=O)[C@@H](N)Cc1ccc(O)cc1)C(N)=O
EC50 [2]: 1.9 µM | Emax [2]: 62% | Emax [3]: inactive | pEC50 [3]: inactive | IC50 [4]: 0.19 µM | inhibition [4]: Dose-dependent effect | IC50 [5]: 0.19 µM | EC50 [6]: 0.25 µM | Emax [6]: 31.3% | inhibition [6]: Dose-dependent effect | Emax [7]: 60% | Activity [8]: 14.1% | Activity [9]: 12.71% | ED50 [10]: 4.8 nmol | Activity [11]: inactive | Activity [24]: inactive | Activity [25]: Active | Activity [26]: Active | Activity [12]: Active | Activity [13]: Dose-dependent effect | ED50 [13]: 8.16 nmol | Activity [14]: inactive | Activity [15]: inactive | Activity [16]: Non-Toxic | Activity [17]: Non-Toxic | Activity [18]: Active | Activity [19]: Active | Activity [20]: Non-Toxic | Activity [21]: Non-Toxic | Emax [22]: inactive | pEC50 [22]: inactive | pEC50 [23]: inactive

NC(=O)[C@H](Cc1ccccc1)NC(=O)[C@H](Cc1ccccc1)NC(=O)[C@@H]1CCCN1C(=O)[C@@H](N)Cc1ccc(O)cc1 [ENDOMORPHIN 2]
Emax [2]: 76.8% | Activity [9]: 16.49% | Activity [27]: Non-Toxic | ED50 [28]: 6.88 nmol

N=C(N)NCCC[C@H](NC(=O)C12CC3CC(CC(C3)C1)C2)C(=O)N[C@@H](Cc1ccccc1)C(N)=O
inhibition [4]: Dose-dependent effect | Activity [8]: 12.9% | Activity [29]: inactive

CC(C)C[C@H](NC(=O)[C@H](Cc1ccccc1)NC(=O)[C@H](C)N(C)C(=O)[C@@H]1CCCN1C(=O)[C@H](N)CC(N)=O)C(=O)N[C@@H](Cc1ccccc1)C(=O)N[C@@H](CCC(N)=O)C(=O)N1CCC[C@H]1C(=O)N[C@@H](CCC(N)=O)C(=O)N[C@@H](CCCNC(=N)N)C(=O)N[C@@H](Cc1ccccc1)C(N)=O
Activity [13]: Dose-dependent effect | ED50 [13]: 26.2 nmol | Activity [14]: inactive | Activity [15]: inactive

COC(=O)/C=C/C(=O)N[C@@H]1CC[C@@]2(O)[C@H]3Cc4ccc(O)c5c4[C@@]2(CCN3CC2CC2)[C@H]1O5
Activity [29]: inactive

NC(=O)[C@H](Cc1ccccc1)NC(=O)[C@H](CCCN=C(N)N)NC(=O)C12CC3CC(CC(C3)C1)C2
IC50 [4]: 0.41 µM | IC50 [5]: 0.41 µM | Activity [9]: 12.41%

Oc1ccc2c3c1O[C@H]1c4[nH]c5ccccc5c4C[C@@]4(O)[C@@H](C2)N(CC2CC2)CC[C@]314
Activity [29]: inactive

CN1CC[C@]23c4c5ccc(O)c4O[C@H]2[C@@H](O)C=C[C@H]3[C@H]1C5 [MORPHINE]
Activity [13]: Dose-dependent effect | ED50 [13]: 0.44 nmol | Activity [14]: Active | Activity [15]: inactive | Activity [30]: inactive | MPE [31]: 6.67% | MPE [32]: 9.88% | Activity [33]: Active | Activity [20]: Toxic

Oc1ccc2c3c1O[C@H]1c4[nH]c5c(c4C[C@@]4(O)[C@@H](C2)N(CC2CC2)CC[C@]314)C[C@@]1(O)[C@H]2Cc3ccc(O)c4c3[C@@]1(CCN2CC1CC1)[C@H]5O4
Activity [29]: inactive
